{
  "source": "patent EP2365091A1",
  "about": "“Method of screening for HtrA protease inhibitors useful for prophylaxis and therapy of a bacterial infection” (Paul-Ehrlich-Institut, priority 2010, dated 2011)",
  "key": {"MMP-7": {"target": "T1, MMP-7 (Homo sapiens, UniProt P09237)", "T1 sequence (P09237 95-267)": "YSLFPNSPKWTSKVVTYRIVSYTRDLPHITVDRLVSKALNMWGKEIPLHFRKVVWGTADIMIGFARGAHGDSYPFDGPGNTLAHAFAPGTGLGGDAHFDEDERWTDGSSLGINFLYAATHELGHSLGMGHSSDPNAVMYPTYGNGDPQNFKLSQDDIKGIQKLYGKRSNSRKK", "test": "In vitro cleavage of recombinant E-Cadherin by MMP-7 (Western blot)", "assay_type": "biochemical", "conditions": "5 ng/µl MMP-7, 16 h, 100 µM HHI (Fig. 11E)", "method": "(§1) For in vitro cleavage studies, recombinant E-Cadherin, EGFR and JAM chimera, IgA or Casein, (R&D Systems, Wiesbaden, Germany) were incubated with HtrA^wt, HtrA^S205A or MMP7 in 50 mM HEPES (pH 7.4) at 37°C for 16 h. Where indicated, HHI or MMP inhibitor II were added. Reactions were stopped by boiling in Laemmli buffer, followed by 8% SDS-PAGE and Western blotting."}, "Hp [1]": {"test_system": "Hp", "test": "Hp adherence and viability, colony forming units after infection of MKN-28 cells", "assay_type": "cell-based, Helicobacter pylori", "method": "For secretome analysis, Hp was grown in protein-free liquid brain heart infusion (BHI) medium (Merck) supplemented with β-cyclodextrin for 48 hours (Bumann et al., 2002). Supernatants of Hp BHI cultures were sterilized by filtration. Lysates of Hp were obtained by sonication in PBS containing 0.1% Triton X-100. To quantify colony forming units (CFU) of Hp, cells were infected with Hp in the presence or absence of HHI. After 16-24 h cells were washed twice with PBS, harvested in BHI supplemented with β-cyclodextrin and seeded on Hp plates. After 72 h, colonies were counted."}, "MKN-28 cells [2]": {"test_system": "MKN-28 cells", "test": "Co-immunoprecipitation of β-Catenin and p120ctn in Hp-infected cells", "assay_type": "cell-based, human", "conditions": "Hp 6 h, 100 µM HHI (Fig. 5B)", "method": "Interaction between β-Catenin and p120^ctn was analyzed by co-immunoprecipitation studies. Cells were lysed and β-Catenin and p120^ctn were immunoprecipitated from cell lysates. Immobilized protein complexes were washed three times with lysis buffer, boiled in Laemmli buffer, separated by SDS-PAGE, and blotted on membranes."}, "β1-integrin": {"test_system": "β1-integrin", "test": "Confocal microscopy of phospho-CagA and β1-integrin co-localization", "assay_type": "cell-based", "conditions": "Hp-infected cells, preincubation with 100 µM HHI (Fig. 7C)", "method": "(§2) For immunofluorescence staining, cells were grown for 24 h on glass coverslips, then fixed (4% paraformaldehyde in PBS), and permeabilized (0.2% Triton X-100 in PBS). Immunostaining was performed using anti-E-Cadherin (cl. 36 detects the intracellular domain, BD Biosciences), anti-E-Cadherin (HecD-1 detects the extracellular domain), ZO-1 (Invitrogen), anti-CagA (Immunological and Biochemical Testsystems GmbH, Reutlingen, Germany), anti-β1-integrin and anti-Hp. Secondary antibodies were labeled with Alexa-488 or Alexa-546 (Invitrogen). Filamentous actin was detected with Alexa Fluor 546-conjugated phalloidin (Invitrogen). For nuclei staining, 4',6-diamin-2-phenylin-dol-dihydrochloride (DAPI, Roche) was used as recommended by the manufacturer's instructions. Samples were analyzed by confocal laser scanning microscopy using a Zeiss LSM 510 Meta confocal microscope. Images were further processed using Corel Photopaint."}, "MKN-28 cells [3]": {"test_system": "MKN-28 cells", "test": "Cell aggregation assay", "assay_type": "cell-based, human", "conditions": "50 ng/µl HtrAwt plus 100 µM HHI (Fig. 4E)", "method": "For cell aggregation assays, 2 x 10^5 cells were trypsinized and seeded into BSA-coated 24-well plates, each well containing 500 µl of cell aggregation buffer (10 mM HEPES (pH 7.4), 150 mM NaCl, 0.7 mM CaCl2, 1% BSA, 0.01% trypsin). After stimulation at 37°C for 30 min on a rocking platform, cells were fixed in 500 µl of 4% paraformaldehyde for 20 min and observed using an inverse phase-contrast microscope."}, "MKN-28 cells [4]": {"test_system": "MKN-28 cells", "test": "Hp-induced ectopic E-Cadherin shedding in infected cells (Western blot of supernatants and lysates)", "assay_type": "cell-based, human", "conditions": "100 µM HHI", "method": "The human gastric adenocarcinoma cell line MKN-28 was grown in RPMI1640 medium (Biochrom, Berlin, Germany) and human breast cancer cells (MCF-7) in DMEM medium (Biochrom) containing 4 mM glutamine (Invitrogen, Karlsruhe, Germany]), and 10% FCS (Biowest, Nuaillé, France) in a humidified 5% CO2 (MKN-28) or 10% CO2 (MCF-7) atmosphere at 37°C. Cells were seeded in tissue culture plates 48 hours before infection and grown to confluence. 1-2 h hours prior to infection, medium was replaced by fresh serum-free media. Where indicated, cells were incubated with indicated concentrations of HHI or MMP inhibitor II (blocks MMP1, MMP3, MMP7 and MMP9) (Calbiochem, Merck , Darmstadt, Germany).\nHp strains Hp26695 and P12 were cultured on agar plates containing 10% horse serum under microaerophilic conditions at 37°C for 48 hours. For infection, bacteria were harvested in PBS Dulbecco's medium, pH 7.4, added to the host cells at a multiplicity of infection (MOI) of 50 or 100 for the indicated time periods and monitored using an inverse phase-contrast microscope (model TS 100, INTAS). To quantify bacteria translocating through cellular monolayers, MKN-28 cells were grown to confluence on filters prior to infection with Hp for 48 h. Translocating Hp were cultured and CFU were counted. All experiments were repeated 3-4 times. […]"}, "TCF/LEF1": {"test_system": "TCF/LEF1", "test": "TOPflash/FOPflash luciferase reporter gene experiment", "assay_type": "cell-based, human", "conditions": "MKN-28, Hp 24 h, 50 µM HHI (Fig. 5C)", "method": "MKN-28 cells were cultured in 24-well plates and grown to 60% confluence. Cells were transfected with 100 ng TOPflash or 100 ng FOPflash (Upstate, Millipore, Bad Schwalbach/Taunus, Germany) and 4 ng phRL Null. As a positive control, cells were co-transfected with 100 ng β-Catenin (β-Cat^S33A) or empty vector for 12 h using Gene Juice transfection reagent (Novagen, Merck, Darmstadt, Germany) as recommended by the manufacturer's instructions. Eighteen hours after transfection, cells were infected with Hp at an MOI of 50, or left untreated. In further approaches, cells were incubated with 50 ng/µl HtrA^wt or HtrA^S205A mutant. After 24 h, cells were harvested in 100 µl reporter lysis buffer (Promega) and luciferase activity was determined in a dual channel luminometer. Results were normalized for transfection efficiency of cotransfected renilla luciferase plasmid."}, "CagA": {"test_system": "CagA", "test": "CagA injection and phosphorylation in infected monolayers (Western blot)", "assay_type": "cell-based, Helicobacter pylori", "conditions": "MKN-28 monolayers", "method": "Cells were harvested in lysis buffer (20 mM Tris-HCl, pH 7.5, 1 mM ETDA, 100 mM NaCl, 1% Triton X-100, 0.5 % sodium deoxycholate, 0.1% SDS, 1 x complete protease inhibitors (Roche, Basel, Switzerland), 1 mM Na3VO4, 1 mM sodium molybdate, 20 mM NaF, 10 mM sodium pyrophosphate, 20 mM β-glycerophosphate) and separated by SDS-PAGE. Proteins were transferred onto PVDF membranes, blocked with RotiBlock (Roth, Karlsruhe, Germany), and probed with anti-E-Cadherin cl. 36 (detects intracellular E-Cadherin domain). To detect CTF1 and CTF2 by Western blots an anti-E-Cadherin polyclonal antibody from Cell Signaling Technologies , Danvers, MA, USA] was used. Quantification of CTF and NTF fragments was performed using the Fusion FX-7 image analyzer and Bio-1D analysis software (Vilber Lourmat Deutschland GmbH, Eberhardzell, Germany). Monoclonal antibodies HecD1 and H-108 against the extracellular domain of E-Cadherin (NTF) were obtained from Calbiochem, Merck, Darmstadt, Germany and Santa Cruz, Santa Cruz, CA, USA, respectively. Expression of Occludin, ZO-1 (Invitrogen), JAM1, β-Catenin, p120^ctn (BD Biosciences, New Jersey, USA), ADAM10, EGFR (Santa Cruz), GAPDH (Abcam, Cambridge, UK), β-Actin (Sigma), CagA (Aalto Bio Reagents Ltd., Dublin, Ireland) was analyzed using specific antibodies. […]"}, "Hp [5]": {"test_system": "Hp", "test": "Hp translocation through the intercellular space of confluent monolayers (confocal microscopy, filter CFU)", "assay_type": "cell-based, Helicobacter pylori", "method": "Hp strains Hp26695 and P12 were cultured on agar plates containing 10% horse serum under microaerophilic conditions at 37°C for 48 hours. For infection, bacteria were harvested in PBS Dulbecco's medium, pH 7.4, added to the host cells at a multiplicity of infection (MOI) of 50 or 100 for the indicated time periods and monitored using an inverse phase-contrast microscope (model TS 100, INTAS). To quantify bacteria translocating through cellular monolayers, MKN-28 cells were grown to confluence on filters prior to infection with Hp for 48 h. Translocating Hp were cultured and CFU were counted. All experiments were repeated 3-4 times.\nas §2, with “For nuclei staining, 4',6-diamin-2-phenylin-dol-dihydrochloride (DAPI, Roche) was used as recommended by the manufacturer's instructions.” left out, “Images were further processed using Corel Photopaint.” left out"}, "HtrA": {"test_system": "HtrA", "test": "In vitro cleavage of recombinant E-Cadherin by HtrA (Western blot)", "assay_type": "biochemical, Helicobacter pylori", "conditions": "100 ng recombinant E-Cadherin, 100 ng/µl HtrA, 16 h", "method": "as §1"}, "MCF-7": {"test_system": "MCF-7", "test": "In-situ immunofluorescence of E-Cadherin in Hp-infected cells", "assay_type": "cell-based, human", "conditions": "MCF-7, Hp 16 h, 100 µM HHI (Fig. 5A)", "method": "as §2"}, "interleukin-8 (IL-8)": {"test_system": "interleukin-8 (IL-8)", "test": "Interleukin-8 (IL-8) ELISA", "assay_type": "cell-based, human", "conditions": "MKN-28, Hp 8 h, 16 h and 36 h, 100 µM HHI (Fig. 12B)", "method": "Determination of IL-8 release was performed by applying a commercially available IL-8 specific ELISA assay system (Bender Medsystems, eBioscience Inc., San Diegeo, CA, USA). In brief, MKN-28 cells were incubated with Hp 8-36 h. Cell culture supernatants were collected, centrifuged, and stored at -80°C for subsequent IL-8 quantification. The IL-8 release was determined as recommend by the manufacturer's instructions."}},
  "note": "“Also recorded” adds a separate entry of the source.",
  "data": [
    {"smiles": "CCOc1ccc2nc(NC(=O)CSc3nnc(-c4ccc(S(=O)(=O)N5CCCC5)cc4)o3)sc2c1", "note": "[HHI]", "values": [
      {"measurement": "MMP7-mediated E-Cadherin cleavage activity", "setting": "MMP-7", "value": "did not affect"},
      {"measurement": "Hp adherence and Hp viability", "setting": "Hp [1]; 100 µM HHI (Fig. 11C)", "value": "could be excluded; also recorded: not affecting"},
      {"measurement": "relative CFU colony forming units (CFU)", "setting": "Hp [1]; 100 µM HHI, 16 h and 24 h infection, colonies counted after 72 h (Fig. 11C)", "value": "no significant difference"},
      {"measurement": "loss of β-Catenin in the precipitated p120ctn immunocomplex upon Hp infection", "setting": "MKN-28 cells [2]", "value": "not reverted"},
      {"measurement": "co-localization of phospho-CagA with β1-integrin at the basolateral membrane", "setting": "β1-integrin", "value": "efficiently prevented"},
      {"measurement": "E-Cadherin-mediated cell aggregation of HtrAwt-treated cells", "setting": "MKN-28 cells [3]", "value": "did not form aggregates, unless HHI was also added"},
      {"measurement": "secretion of HtrA into the infected cell supernatant", "setting": "MKN-28 cells [4]; 16 and 24 h (Fig. 4D)", "value": "could be excluded"},
      {"measurement": "Hp-induced ectopic E-Cadherin cleavage in infected MKN-28 cells", "setting": "MKN-28 cells [4]; Hp infection 16 and 24 h (Fig. 4D)", "value": "clearly inhibited"},
      {"measurement": "Hp-induced luciferase activity (TOP/FOP)", "setting": "TCF/LEF1", "value": "unaffected"},
      {"measurement": "amount of total CagA", "setting": "CagA; 100 µM HHI preincubation (Fig. 7A)", "value": "not altered"},
      {"measurement": "injected phospho-CagA in Hp-infected cells", "setting": "CagA; 100 µM HHI preincubation, 16 h and 24 h (Fig. 7A)", "value": "decreased"},
      {"measurement": "Hp invasion through the intercellular space of confluent MKN-28 cells growing on filters", "setting": "Hp [5]; 100 µM HHI, Hp 48 h, CFU counted, p = 0.01 (Fig. 6B)", "value": "significantly inhibited"},
      {"measurement": "number of translocating bacteria in intercellular spaces", "setting": "Hp [5]; MKN-28 monolayers, confocal microscopy, 48 h, 100 µM HHI (Fig. 6A)", "value": "greatly reduced"},
      {"measurement": "HHI concentration sufficient to partly block HtrA-mediated E-Cadherin cleavage", "setting": "HtrA", "value": 10, "unit": "µM"},
      {"measurement": "HHI concentration that blocked cleavage completely", "setting": "HtrA", "value": 30, "unit": "µM"},
      {"measurement": "Hp-induced loss of E-Cadherin-dependent intercellular adhesion", "setting": "MCF-7", "value": "blocks; also recorded: efficiently blocked"},
      {"measurement": "T4SS-dependent secretion of interleukin-8 (IL-8) of Hp-infected cells", "setting": "interleukin-8 (IL-8)", "value": "unaffected"}
    ]}
  ]
}
